Results published in patent US12590062B2, “PD-1/PD-L1 inhibitors” (Gilead Sciences, Inc., priority 2017, dated 2026).

Tests used:
PD-1/PD-L1 = PD-1/PD-L1 (Homo sapiens, UniProt Q9NZQ7); test: PD-1/PD-L1 biochemical protein-protein interaction assay (ALPHA); assay type: binding; conditions: 0.3 nM His tagged PD-L1, 2.5 nM biotinylated Fc-PD-1, 60 minutes at 25° C., read-out: IC50 PD-L1-PD-1 Alpha IC50-mono PD-L1-fcP-D1
Procedure, shortened: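 His-PD-L1 ECD 0.3 nM + biotin-Fc-PD-1 2.5 nM (final), 25 mM Hepes pH 7.4, 150 mM NaCl, 3.4 mM EDTA; 60 min, 25° C; anti-His acceptor/streptavidin donor ALPHA beads; decreased signal = blocked binding; 4-parameter IC50.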

PD-1/PD-L1 interaction = biological target: T1, PD-1/PD-L1 interaction (Homo sapiens, UniProt Q9NZQ7); test: PD-1/PD-L1 NFAT reporter co-culture assay; assay type: cell-based; conditions: Jurkat PD-1 NFAT-luciferase cells co-cultured with aAPC-PD-L1 CHO cells, 6 hrs at 37° C.; read-out: EC50 NFAT Luciferase
T1 construct: expressed in transfected cells; host or cells: CHO cells (aAPC-PD-L1) co-cultured with Jurkat cells overexpressing PD-1 and an NFAT-luciferase reporter
Procedure, shortened: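 Compounds are scored by restoration of NFAT-luciferase signal in PD-1-expressing Jurkat cells cultured 6 h at 37 °C on CHO cells presenting anti-CD3 and PD-L1; EC50 values derive from four-parameter curve fitting.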

T1 sequence (Q9NZQ7 19-290): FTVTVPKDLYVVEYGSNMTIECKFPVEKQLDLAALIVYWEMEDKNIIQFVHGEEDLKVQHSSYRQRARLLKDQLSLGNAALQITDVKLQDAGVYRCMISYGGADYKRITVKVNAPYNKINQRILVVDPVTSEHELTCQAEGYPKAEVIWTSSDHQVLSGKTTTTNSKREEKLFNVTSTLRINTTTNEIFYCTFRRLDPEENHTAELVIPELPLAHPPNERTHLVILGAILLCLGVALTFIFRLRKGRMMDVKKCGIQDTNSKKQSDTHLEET
Chain of PD-1/PD-L1 (Q9NZQ7 19-238 limits assumed): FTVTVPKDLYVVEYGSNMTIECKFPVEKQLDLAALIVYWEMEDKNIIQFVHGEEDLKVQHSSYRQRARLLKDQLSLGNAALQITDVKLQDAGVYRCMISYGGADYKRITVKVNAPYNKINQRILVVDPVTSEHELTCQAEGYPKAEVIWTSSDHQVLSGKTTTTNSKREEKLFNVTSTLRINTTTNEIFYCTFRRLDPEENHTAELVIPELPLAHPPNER

Which IC50 (PD-1/PD-L1) does the source give for `Cc1c(COc2cc(OCc3cncc(C#N)c3)c(CNC[C@@H](O)CC(=O)O)cc2Cl)cccc1-c1cccc(-c2ccc(OCCNC[C@@H](O)CC(=O)O)cc2Cl)c1C` [Example 315, (S)-4-((4-((4″-(2-(((S)-3-carboxy-2-hydroxypropyl)amino)ethoxy)-2″-chloro-2,2′-dimethyl-[1,1′:3′,1″-terphenyl]-3-yl)methoxy)-5-chloro-2-((5-cyanopyridin-3-yl)methoxy)benzyl)amino)-3-hydroxybutanoic acid] here?
The IC50 was 0.242 nM.

And the EC50 (PD-1/PD-L1 interaction)?
The EC50 was 1250 nM.

`Cc1c(-c2ccc(OCCNC[C@@H](O)CC(=O)O)cc2)cccc1-c1cccc2c1CC[C@@H]2Oc1nc(OCCCC#N)c(CNC[C@@H](O)CC(=O)O)cc1Br` [Example 327, (S)-4-((2-((3′-((S)-1-((3-bromo-5-((((S)-3-carboxy-2-hydroxypropyl)amino)methyl)-6-(3-cyanopropoxy)pyridin-2-yl)oxy)-2,3-dihydro-1H-inden-4-yl)-2′-methyl-[1,1′-biphenyl]-4-yl)oxy)ethyl)amino)-3-hydroxybutanoic acid] was tested. Which IC50 (PD-1/PD-L1) did it give?
The IC50 was 0.051 nM.

What about the EC50 (PD-1/PD-L1 interaction) of the same compound?
Its EC50 is 114 nM.

Which results are given for `Cc1c(COc2cc(OCc3cncc(C#N)c3)c(CNC[C@@H](O)CC(=O)O)cc2Cl)cccc1-c1cccc(-c2ccc3ncnc(NCCO)c3c2)c1C` [Example 337, (S)-4-((5-chloro-2-((5-cyanopyridin-3-yl)methoxy)-4-((3′-(4-((2-hydroxyethyl)amino)quinazolin-6-yl)-2,2′-dimethyl-[1,1′-biphenyl]-3-yl)methoxy)benzyl)amino)-3-hydroxybutanoic acid]?
IC50 (PD-1/PD-L1): 0.287 nM; EC50 (PD-1/PD-L1 interaction): 1920 nM

`Cc1c(COc2cc(OCc3cncc(C#N)c3)c(CNC[C@@H](O)CC(=O)O)cc2Cl)cccc1-c1cccc(-c2ccc(N3CCNCC3)cc2)c1C` [Example 339, (S)-4-((5-chloro-2-((5-cyanopyridin-3-yl)methoxy)-4-((2,2′-dimethyl-4″-(piperazin-1-yl)-[1,1′:3′,1″-terphenyl]-3-yl)methoxy)benzyl)amino)-3-hydroxybutanoic acid] was tested. Which IC50 (PD-1/PD-L1) did it give?
The IC50 was 1.3 nM.

What about the EC50 (PD-1/PD-L1 interaction) of the same compound?
Its EC50 is 2220 nM.

`COc1cc(OCc2cccc(-c3cccc(COc4cc(OCc5cncc(C#N)c5)c(CNC[C@@H](O)CC(=O)O)cc4Cl)c3C)c2C)c(Cl)cc1CNCC(=O)NS(C)(=O)=O` [Example 355, (S)-4-((5-chloro-4-((3′-((2-chloro-5-methoxy-4-(((2-(methylsulfonamido)-2-oxoethyl)amino)methyl)phenoxy)methyl)-2,2′-dimethyl-[1,1′-biphenyl]-3-yl)methoxy)-2-((5-cyanopyridin-3-yl)methoxy)benzyl)amino)-3-hydroxybutanoic acid] was tested. Which IC50 (PD-1/PD-L1) did it give?
The IC50 was 0.148 nM.

What about the EC50 (PD-1/PD-L1 interaction) of the same compound?
Its EC50 is 712 nM.

`Cc1c(COc2cc(OCc3cncc(C#N)c3)c(CN(C)C)cc2Cl)cccc1-c1cccc(-c2ccc(CN(C)C)s2)c1C` [Example 366, 5-((4-chloro-2-((dimethylamino)methyl)-5-((3′-(5-((dimethylamino)methyl)thiophen-2-yl)-2,2′-dimethyl-[1,1′-biphenyl]-3-yl)methoxy)phenoxy)methyl)nicotinonitrile] was tested. Which IC50 (PD-1/PD-L1) did it give?
The IC50 was 2.33 nM.

And the EC50 (PD-1/PD-L1 interaction)?
The EC50 was 2840 nM.

How did the IC50 (PD-1/PD-L1) turn out when `Cc1c(COc2cc(OCc3cncc(C#N)c3)c(CN[C@@](C)(CO)C(=O)O)cc2Cl)cccc1-c1cccc(-c2ccc3c(c2)OCC3N(C)C)c1C` (stereo partly drawn) [Example 376, (2S)-2-((5-chloro-2-((5-cyanopyridin-3-yl)methoxy)-4-((3′-(3-(dimethylamino)-2,3-dihydrobenzofuran-6-yl)-2,2′-dimethyl-[1,1′-biphenyl]-3-yl)methoxy)benzyl)amino)-3-hydroxy-2-methylpropanoic acid] was run?
The IC50 was 0.346 nM.

And the EC50 (PD-1/PD-L1 interaction)?
The EC50 was 770 nM.

What does the source list for `Cc1c(COc2cc(OCc3cncc(C#N)c3)c(CN[C@@](C)(CO)C(=O)O)cc2Cl)cccc1-c1cccc(-c2ccc3c(c2)CC[C@H]3N(C)C)c1C` [Example 378, (S)-2-((5-chloro-2-((5-cyanopyridin-3-yl)methoxy)-4-((3′-((R)-1-(dimethylamino)-2,3-dihydro-1H-inden-5-yl)-2,2′-dimethyl-[1,1′-biphenyl]-3-yl)methoxy)benzyl)amino)-3-hydroxy-2-methylpropanoic acid]?
IC50 (PD-1/PD-L1): 0.127 nM; EC50 (PD-1/PD-L1 interaction): 191 nM

Which results are given for `Cc1c(COc2nc(OCc3cncc(C#N)c3)c(CNC[C@@H](O)CC(=O)O)cc2Br)cccc1-c1cccc(-c2ccc(OCCNC[C@@H](O)CC(=O)O)cc2)c1C` [Example 385, (S)-4-((2-((3″-(((3-bromo-5-((((S)-3-carboxy-2-hydroxypropyl)amino)methyl)-6-((5-cyanopyridin-3-yl)methoxy)pyridin-2-yl)oxy)methyl)-2′,2″-dimethyl-[1,1′:3′,1″-terphenyl]-4-yl)oxy)ethyl)amino)-3-hydroxybutanoic acid]?
IC50 (PD-1/PD-L1): 0.051 nM; EC50 (PD-1/PD-L1 interaction): 84 nM

Which results are given for `Cc1c(COc2cc(OCc3cncc(C#N)c3)c(CNC[C@@H](O)CC(=O)O)cc2Cl)cccc1-c1cccc(-n2cc(CN)nn2)c1C` [Example 386, (S)-4-((4-((3′-(4-(aminomethyl)-1H-1,2,3-triazol-1-yl)-2,2′-dimethyl-[1,1′-biphenyl]-3-yl)methoxy)-5-chloro-2-((5-cyanopyridin-3-yl)methoxy)benzyl)amino)-3-hydroxybutanoic acid]?
IC50 (PD-1/PD-L1): 0.302 nM; EC50 (PD-1/PD-L1 interaction): 868 nM

`Cc1c(COc2cc(OCc3cncc(C#N)c3)c(CNC[C@@H](O)CC(=O)O)cc2Cl)cccc1-c1cccc(-c2cn(CCCNC[C@@H](O)CC(=O)O)nn2)c1C` [Example 387, (S)-4-((3-(4-(3′-((4-((((S)-3-carboxy-2-hydroxypropyl)amino)methyl)-2-chloro-5-((5-cyanopyridin-3-yl)methoxy)phenoxy)methyl)-2,2′-dimethyl-[1,1′-biphenyl]-3-yl)-1H-1,2,3-triazol-1-yl)propyl)amino)-3-hydroxybutanoic acid] was tested. Which IC50 (PD-1/PD-L1) did it give?
The IC50 was 0.051 nM.

And the EC50 (PD-1/PD-L1 interaction)?
The EC50 was 362 nM.

Which IC50 (PD-1/PD-L1) does the source give for `Cc1c(COc2cc(OCc3cncc(C#N)c3)c(CNC[C@@H](O)CC(=O)O)cc2Cl)cccc1-c1cccc(-c2ccn3cc(CNC[C@@H](O)CC(=O)O)nc3c2)c1C` [Example 397, (S)-4-(((7-(3′-((4-((((S)-3-carboxy-2-hydroxypropyl)amino)methyl)-2-chloro-5-((5-cyanopyridin-3-yl)methoxy)phenoxy)methyl)-2,2′-dimethyl-[1,1′-biphenyl]-3-yl)imidazo[1,2-a]pyridin-2-yl)methyl)amino)-3-hydroxybutanoic acid] here?
Its IC50 is 0.064 nM.

What about the EC50 (PD-1/PD-L1 interaction) of the same compound?
The EC50 was 709 nM.

For `COc1cc(OCc2cccc(-c3cccc(COc4nc(OC)c(CNC5(C(=O)O)CCC5)cc4Cl)c3C)c2C)c(Cl)cc1CNC1(C(=O)O)CCC1` [Example 486], which IC50 (PD-1/PD-L1) is on record?
The IC50 was 0.146 nM.

And the EC50 (PD-1/PD-L1 interaction)?
The EC50 was 112 nM.

`Cc1c(COc2nc(OCc3cc(C#N)cc(C#N)c3)c(CNC[C@@H](O)CC(=O)O)cc2Br)cccc1-c1cccc(-c2ccc(OCCNC[C@@H](O)CC(=O)O)cc2)c1C` [Example 515] was tested. Which IC50 (PD-1/PD-L1) did it give?
The IC50 was 0.203 nM.

And the EC50 (PD-1/PD-L1 interaction)?
Its EC50 is 95 nM.

What does the source list for `Cc1c(COc2cc(OCc3cncc(C#N)c3)c(CN[C@@](C)(CO)C(=O)O)cc2Cl)cccc1-c1cccc(-c2ccc(S(N)(=O)=O)cc2)c1C` [Example 564]?
IC50 (PD-1/PD-L1): 0.293 nM; EC50 (PD-1/PD-L1 interaction): 80 nM

How did the IC50 (PD-1/PD-L1) turn out when `COC1CN(C2CCc3cc(-c4cccc(-c5cccc(COc6cc(OCc7cncc(C#N)c7)c(CN[C@@](C)(CO)C(=O)O)cc6Cl)c5C)c4C)ccc32)C1` (some centres unmarked) [Example 585] was run?
The IC50 was 0.098 nM.

And the EC50 (PD-1/PD-L1 interaction)?
The EC50 was 182 nM.

With `COc1nc(OCc2cccc(-c3cccc(COc4nc(OCc5cncc(C#N)c5)c(CNC[C@@H](O)CC(=O)O)cc4Br)c3C)c2C)c(Br)cc1CNC[C@@H](O)CC(=O)O` [Example 586] as the compound, how does the IC50 (PD-1/PD-L1) read?
The IC50 was 0.836 nM.

What about the EC50 (PD-1/PD-L1 interaction) of the same compound?
Its EC50 is 181 nM.

Which results are given for `COc1nc(O[C@@H]2c3cccc(-c4cccc5c4C[C@@H](F)[C@@H]5Oc4nc(OC)c(CNC[C@@H](O)CC(=O)O)cc4Cl)c3C[C@H]2F)c(Cl)cc1CNC[C@@H](O)CC(=O)O` [Example 639, (3S,3′S)-4,4′-((((((1R,1′R,2R,2′R)-2,2′-difluoro-2,2′,3,3′-tetrahydro-1H,1′H-[4,4′-biindene]-1,1′-diyl)bis(oxy))bis(5-chloro-2-methoxypyridine-6,3-diyl))bis(methylene))bis(azanediyl))bis(3-hydroxybutanoic acid)]?
IC50 (PD-1/PD-L1): 1.85 nM; EC50 (PD-1/PD-L1 interaction): 942 nM

What does the source list for `COc1nc(O[C@@H]2c3cccc(-c4cccc5c4C[C@H](F)[C@@H]5Oc4nc(OC)c(CNC[C@@H](O)CC(=O)O)cc4Cl)c3C[C@@H]2F)c(Cl)cc1CNC[C@@H](O)CC(=O)O` [Example 640, (3S,3′S)-4,4′-((((((1R,1′R,2S,2′S)-2,2′-difluoro-2,2′,3,3′-tetrahydro-1H,1′H-[4,4′-biindene]-1,1′-diyl)bis(oxy))bis(5-chloro-2-methoxypyridine-6,3-diyl))bis(methylene))bis(azanediyl))bis(3-hydroxybutanoic acid)]?
IC50 (PD-1/PD-L1): 1.09 nM; EC50 (PD-1/PD-L1 interaction): ≥ 50000 nM

Which IC50 (PD-1/PD-L1) does the source give for `Cc1c(-c2ccc(OCCNC[C@@H](O)CC(=O)O)cc2)cccc1-c1cccc2c1CC[C@@H]2Oc1nc(OCc2cncc(C#N)c2)c(CNC[C@@H](O)CC(=O)O)cc1Cl` [Example 675] here?
The IC50 was 0.064 nM.

What about the EC50 (PD-1/PD-L1 interaction) of the same compound?
The EC50 was 95 nM.

What does the source list for `Cc1c(-c2ccc(OCCNC[C@@H](O)CC(=O)O)cc2)cccc1-c1cccc2c1CC[C@@H]2Oc1nc(OCc2cncc(C#N)c2)c(CNC[C@@H](O)CC(=O)O)cc1Br` [Example 676]?
IC50 (PD-1/PD-L1): 0.064 nM; EC50 (PD-1/PD-L1 interaction): 62 nM

What does the source list for `O=C(O)C[C@H](O)CNCc1ccc(OC2CCc3c(-c4cccc5c4CCC5Oc4ccc(CNC[C@@H](O)CC(=O)O)cc4)cccc32)cc1` (some centres unmarked) [Example 681]?
IC50 (PD-1/PD-L1): 8.91 nM; EC50 (PD-1/PD-L1 interaction): ≥ 50000 nM
